Values after ≈ are worked out from the molar mass of the structure shown.
Experiments:
Format in all cases: cell-based
[1] = tested on: Proteus vulgaris (PCM 2668); settings: 24 h
[2] = tested on: Candida albicans (ATCC 10231)
human red blood cells = settings: 1 h
Summary of the method: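 Washed donor erythrocytes (4% v/v in PBS, EDTA-anticoagulated) incubated with graded lipopeptide concentrations for 1 h at 37 °C; hemoglobin release read at 550 nm in supernatants. Scaled between 0.1% Triton X-100 (100%) and PBS (0%); MHC is the lowest concentration giving 10% hemolysis.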

[3] = tested on: Pseudomonas aeruginosa (ATCC 9027); settings: ATCC 9027, 24 h
[4] = tested on: Aspergillus brasiliensis (ATCC 16404); settings: ATCC 16404, 48 h
Summary of the method: (§1)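 CLSI broth microdilution: bacteria in Mueller-Hinton broth at 10^5 cfu/mL inoculum, 18 h at 37°C; fungi in Sabouraud Dextrose broth at 10^3 cfu/mL, 48 h at 25°C. MIC (μg/mL) is the lowest lipopeptide concentration inhibiting visible growth; triplicate on three days.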

[5] = tested on: Proteus vulgaris (PCM 2668); settings: 18 h
Summary of the method: as §1

[6] = tested on: Pseudomonas aeruginosa (ATCC 9027); settings: ATCC 9027, 18 h
Summary of the method: as §1

[7] = tested on: Candida tropicalis (PCM 2681); settings: PCM 2681, 48 h
Summary of the method: as §1

[8] = tested on: Staphylococcus epidermidis (PCM 2118); settings: for MIC Staphylococcus epidermidis: PCM 2118, 18 h; for MBC Staphylococcus epidermidis: PCM 2118, 24 h
Summary of the method: (§2)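 Broth microdilution per CLSI: Mueller-Hinton broth, 10^5 cfu/mL inoculum, 18 h at 37°C for bacteria; Sabouraud dextrose broth, 10^3 cfu/mL, 48 h at 25°C for fungi. MIC (μg/mL) is the lowest lipopeptide concentration inhibiting visible growth; MBC/MFC also determined. Triplicate on three days.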

[9] = tested on: Enterococcus faecalis (ATCC 29212); settings: for MBC Enterococcus fecalis, lipopeptides without TFA counter ion / MIC Enterococcus fecalis / MIC Enterococcus fecalis, lipopeptides without TFA counter ion: ATCC 29212, 18 h; for MBC Enterococcus fecalis: ATCC 29212, 24 h
Summary of the method: as §2

[10] = tested on: Bacillus subtilis (ATCC 6633); settings: for MIC Bacillus subtillis: ATCC 6633, 18 h; for MBC Bacillus subtillis: ATCC 6633, 24 h
Summary of the method: as §2

[11] = tested on: Klebsiella pneumoniae (ATCC 700603); settings: for MBC Klebsiella pneumoniae, lipopeptides without TFA counter ion / MIC Klebsiella pneumoniae / MIC Klebsiella pneumoniae, lipopeptides without TFA counter ion: ATCC 700603, 18 h; for MBC Klebsiella pneumoniae: ATCC 700603, 24 h
Summary of the method: as §1

[12] = tested on: Candida albicans (ATCC 10231); settings: ATCC 10231, 48 h
Summary of the method: as §1

[13] = tested on: Staphylococcus aureus (ATCC 25923); settings: for MBC Staphylococcus aureus, lipopeptides without TFA counter ion / MIC Staphylococcus aureus / MIC Staphylococcus aureus, lipopeptides without TFA counter ion: ATCC 25923, 18 h; for MBC Staphylococcus aureus: ATCC 25923, 24 h
Summary of the method: as §1

[14] = tested on: Escherichia coli (ATCC 25922); settings: for MBC Escherichia coli, lipopeptides without TFA counter ion / MIC Escherichia coli / MIC Escherichia coli, lipopeptides without TFA counter ion: ATCC 25922, 18 h; for MBC Escherichia coli: ATCC 25922, 24 h
Summary of the method: as §1

Row | Structure (SMILES) | MBC Proteus vulgaris [1] | MFC Candida albicans, lipopeptides without TFA counter ion [2] | Hemolysis HC10 (MHC), concentration of lipopeptide inducing 10% of hemolysis (human red blood cells) | MBC Pseudomonas aeruginosa [3] | MFC Aspergillus brasiliensis [4] | MIC Aspergillus brasiliensis [4] | MIC Proteus vulgaris [5] | MIC Pseudomonas aeruginosa [6] | MFC Candida tropicalis [7] | MIC Candida tropicalis [7] | MIC Staphylococcus epidermidis [8] | MBC Staphylococcus epidermidis [8] | MBC Enterococcus fecalis, lipopeptides without TFA counter ion [9] | MIC Enterococcus fecalis [9] | MIC Enterococcus fecalis, lipopeptides without TFA counter ion [9] | MBC Enterococcus fecalis [9] | MIC Bacillus subtillis [10] | MBC Bacillus subtillis [10] | MBC Klebsiella pneumoniae, lipopeptides without TFA counter ion [11] | MIC Klebsiella pneumoniae [11] | other results
1 | CCCCCCCCCCCCCC(=O)N[C@@H](CCCCN)C(=O)N[C@@H](CCCCN)C(=O)N[C@@H](CCCCN)C(N)=O [C14-KKK-NH2] | >512 µg/mL | 256 µg/mL (≈ 418 µM) | 256 µg/mL | 128 µg/mL (≈ 209 µM) | 64 µg/mL (≈ 105 µM) | 64 µg/mL (≈ 105 µM) | >512 µg/mL | 32 µg/mL (≈ 52.3 µM) | 128 µg/mL (≈ 209 µM) | 128 µg/mL (≈ 209 µM) | 8 µg/mL (≈ 13.1 µM) | 8 µg/mL (≈ 13.1 µM) | 64 µg/mL (≈ 105 µM) | 64 µg/mL (≈ 105 µM) | 32 µg/mL (≈ 52.3 µM) | 64 µg/mL (≈ 105 µM) | 4 µg/mL (≈ 6.54 µM) | 4 µg/mL (≈ 6.54 µM) | 256 µg/mL (≈ 418 µM) | 128 µg/mL (≈ 209 µM) | MIC Klebsiella pneumoniae, lipopeptides without TFA counter ion [11]: 128 µg/mL (≈ 209 µM); MBC Klebsiella pneumoniae [11]: 128 µg/mL (≈ 209 µM); MFC Candida albicans [12]: 128 µg/mL (≈ 209 µM); MIC Candida albicans [12]: 128 µg/mL (≈ 209 µM); MIC Candida albicans, lipopeptides without TFA counter ion [12]: 256 µg/mL (≈ 418 µM); MBC Staphylococcus aureus, lipopeptides without TFA counter ion [13]: 32 µg/mL (≈ 52.3 µM); MIC Staphylococcus aureus [13]: 64 µg/mL (≈ 105 µM); MIC Staphylococcus aureus, lipopeptides without TFA counter ion [13]: 32 µg/mL (≈ 52.3 µM); MBC Staphylococcus aureus [13]: 64 µg/mL (≈ 105 µM); MBC Escherichia coli, lipopeptides without TFA counter ion [14]: 128 µg/mL (≈ 209 µM); MIC Escherichia coli [14]: 128 µg/mL (≈ 209 µM); MIC Escherichia coli, lipopeptides without TFA counter ion [14]: 128 µg/mL (≈ 209 µM); MBC Escherichia coli [14]: 128 µg/mL (≈ 209 µM)
2 | CCCCCCCCCCCCCC(=O)N[C@@H](CCCCN)C(=O)N[C@@H](CCCCN)C(N)=O [C14-KK-NH2] | >512 µg/mL | 256 µg/mL (≈ 529 µM) | 128 µg/mL | 64 µg/mL (≈ 132 µM) | 256 µg/mL (≈ 529 µM) | 256 µg/mL (≈ 529 µM) | >512 µg/mL | 32 µg/mL (≈ 66.2 µM) | 256 µg/mL (≈ 529 µM) | 256 µg/mL (≈ 529 µM) | 4 µg/mL (≈ 8.27 µM) | 4 µg/mL (≈ 8.27 µM) | 32 µg/mL (≈ 66.2 µM) | 32 µg/mL (≈ 66.2 µM) | 32 µg/mL (≈ 66.2 µM) | 64 µg/mL (≈ 132 µM) | 4 µg/mL (≈ 8.27 µM) | 4 µg/mL (≈ 8.27 µM) | 128 µg/mL (≈ 265 µM) | 128 µg/mL (≈ 265 µM) | MIC Klebsiella pneumoniae, lipopeptides without TFA counter ion [11]: 128 µg/mL (≈ 265 µM); MBC Klebsiella pneumoniae [11]: 128 µg/mL (≈ 265 µM); MFC Candida albicans [12]: 128 µg/mL (≈ 265 µM); MIC Candida albicans [12]: 128 µg/mL (≈ 265 µM); MIC Candida albicans, lipopeptides without TFA counter ion [12]: 256 µg/mL (≈ 529 µM); MBC Staphylococcus aureus, lipopeptides without TFA counter ion [13]: 64 µg/mL (≈ 132 µM); MIC Staphylococcus aureus [13]: 64 µg/mL (≈ 132 µM); MIC Staphylococcus aureus, lipopeptides without TFA counter ion [13]: 32 µg/mL (≈ 66.2 µM); MBC Staphylococcus aureus [13]: 64 µg/mL (≈ 132 µM); MBC Escherichia coli, lipopeptides without TFA counter ion [14]: 64 µg/mL (≈ 132 µM); MIC Escherichia coli [14]: 64 µg/mL (≈ 132 µM); MIC Escherichia coli, lipopeptides without TFA counter ion [14]: 32 µg/mL (≈ 66.2 µM); MBC Escherichia coli [14]: 128 µg/mL (≈ 265 µM)

Reference: paper PMC5285354, “Cationic Net Charge and Counter Ion Type as Antimicrobial Activity Determinant Factors of Short Lipopeptides” (Frontiers in Microbiology, 2017)
